test system: A2058 cells; assay: A2058 cell proliferation assay; type: cell-based; conditions: Homo sapiens, 96 hours, CellTiter-Glo

| SMILES | IC50 |
| --- | --- |
| O=c1[nH]c2cc3cc(-c4cnn(C(F)F)c4Cl)c(Cl)cc3nc2[nH]1 [Example 88, 6-chloro-7-(5-chloro-1-(difluoromethyl)-1H-pyrazol-4-yl)-1,3-dihydro-2H-imidazo[4,5-b]quinolin-2-one] | 9.1 nM |
| O=c1[nH]c2cc3c(nc2[nH]1)CCN(c1ccc(F)c(C(F)(F)F)n1)C3 [Example 61, 7-(5-fluoro-6-(trifluoromethyl)pyridin-2-yl)-1,3,5,6,7,8-hexahydro-2H-imidazo[4,5-b][1,6]naphthyridin-2-one] | 1.9 nM |
| [2H]C([2H])([2H])Oc1nc(Cl)ccc1-c1ccc2nc3[nH]c(=O)[nH]c3cc2c1 [Example 28, 7-(6-chloro-2-(methoxy-d3)pyridin-3-yl)-1,3-dihydro-2H-imidazo[4,5-b]quinolin-2-one] | 7.9 nM |
| CNc1nc(Cl)ccc1-c1ccc2nc3[nH]c(=O)[nH]c3cc2c1 [Example 41, 7-(6-chloro-2-(methylamino)pyridin-3-yl)-1,3-dihydro-2H-imidazo[4,5-b]quinolin-2-one] | 61 nM |
| O=c1[nH]c2cc3c(nc2[nH]1)CCC(c1ccc(F)cc1)C3 (stereo not drawn) [Example 57, 7-(4-fluorophenyl)-1,3,5,6,7,8-hexahydro-2H-imidazo[4,5-b]quinolin-2-one] | 32.2 nM |
| [2H]C([2H])([2H])c1c(-c2ccc3nc4[nH]c(=O)[nH]c4cc3c2)cnn1C(F)F [Example 45, 7-(1-(difluoromethyl)-5-(methyl-d3)-1H-pyrazol-4-yl)-1,3-dihydro-2H-imidazo[4,5-b]quinolin-2-one] | 0.19 nM |
| O=c1[nH]c2cc3cc(-c4ncn(C(F)F)c4Cl)ccc3nc2[nH]1 [Example 37, 7-(5-chloro-1-(difluoromethyl)-1H-imidazol-4-yl)-1,3-dihydro-2H-imidazo[4,5-b]quinolin-2-one] | 1 nM |
| CNc1ccc(-c2ccc3nc4[nH]c(=O)[nH]c4cc3c2)c(Cl)n1 [Example 40, 7-(2-chloro-6-(methylamino)pyridin-3-yl)-1,3-dihydro-2H-imidazo[4,5-b]quinolin-2-one] | 8 nM |
| O=c1[nH]c2cc3c(Cl)c(-c4cn(C(F)F)nc4Cl)ccc3nc2[nH]1 [Example 87, 8-chloro-7-(3-chloro-1-(difluoromethyl)-1H-pyrazol-4-yl)-1,3-dihydro-2H-imidazo[4,5-b]quinolin-2-one] | 2 nM |
| O=c1[nH]c2cc3cc(-c4cnn(C(F)F)c4OC(F)F)ccc3nc2[nH]1 [Example 42, 7-(5-(difluoromethoxy)-1-(difluoromethyl)-1H-pyrazol-4-yl)-1,3-dihydro-2H-imidazo[4,5-b]quinolin-2-one] | 0.4 nM |
| O=c1[nH]c2cc3cc(-c4cn(C(F)F)nc4Cl)c(Cl)cc3nc2[nH]1 [Example 89, 6-chloro-7-(3-chloro-1-(difluoromethyl)-1H-pyrazol-4-yl)-1,3-dihydro-2H-imidazo[4,5-b]quinolin-2-one] | 18.8 nM |
| O=c1[nH]c2cc3c(nc2[nH]1)CCN(c1ccc(Cl)nc1C(F)(F)F)C3 [Example 62, 7-(6-chloro-2-(trifluoromethyl)pyridin-3-yl)-1,3,5,6,7,8-hexahydro-2H-imidazo[4,5-b][1,6]naphthyridin-2-one] | 31.9 nM |
| O=c1[nH]c2cc3cc(-c4ccc(Cl)nc4OC(F)F)ccc3nc2[nH]1 [Example 39, 7-(6-chloro-2-(difluoromethoxy)pyridin-3-yl)-1,3-dihydro-2H-imidazo[4,5-b]quinolin-2-one] | 3.3 nM |
| O=c1[nH]c2cc3c(nc2[nH]1)CCN(c1nc(C(F)(F)F)ccc1F)C3 [Example 60, 7-(3-fluoro-6-(trifluoromethyl)pyridin-2-yl)-1,3,5,6,7,8-hexahydro-2H-imidazo[4,5-b][1,6]naphthyridin-2-one] | 1.7 nM |
| O=c1[nH]c2cc3c(nc2[nH]1)CCC(c1cn(C(F)F)nc1Cl)C3 (stereo not drawn) [Example 63, 7-(3-chloro-1-(difluoromethyl)-1H-pyrazol-4-yl)-1,3,5,6,7,8-hexahydro-2H-imidazo[4,5-b]quinolin-2-one] | 8.1 nM |

test system: SK-MEL-3 cells; assay: SK-MEL-3 cell proliferation assay; type: cell-based; conditions: Homo sapiens, SK-MEL3; SK-MEL-3 cells, 72 hours, CellTiter-Glo; read-out: SK-MEL-3 IC50

| SMILES | IC50 |
| --- | --- |
| [2H]C([2H])([2H])Oc1nc(Cl)ccc1-c1ccc2nc3[nH]c(=O)[nH]c3cc2c1 [Example 28, 7-(6-chloro-2-(methoxy-d3)pyridin-3-yl)-1,3-dihydro-2H-imidazo[4,5-b]quinolin-2-one] | 1.1 nM |
| O=c1[nH]c2cc3c(Cl)c(N4CC5(CCC5)C4)ccc3nc2[nH]1 [Example 76, 8-chloro-7-(2-azaspiro[3.3]heptan-2-yl)-1,3-dihydro-2H-imidazo[4,5-b]quinolin-2-one] | 2.3 nM |
| Cc1ccc(-c2cc3cc4[nH]c(=O)[nH]c4nc3cc2Cl)cc1 [Example 69, 6-chloro-7-(p-tolyl)-1,3-dihydro-2H-imidazo[4,5-b]quinolin-2-one] | 9.7 nM |
| O=c1[nH]c2cc3c(nc2[nH]1)CCN(c1ccc(C(F)F)cc1Cl)C3 [Example 46, 7-(2-chloro-4-(difluoromethyl)phenyl)-1,3,5,6,7,8-hexahydro-2H-imidazo[4,5-b][1,6]naphthyridin-2-one] | 1.2 nM |
| Cc1ccc(-c2ccc3nc4[nH]c(=O)[nH]c4cc3c2Cl)nc1 [Example 70, 8-chloro-7-(5-methylpyridin-2-yl)-1,3-dihydro-2H-imidazo[4,5-b]quinolin-2-one] | 2.9 nM |
| O=c1[nH]c2cc3c(Cl)c(-n4ccc(C(F)(F)F)n4)ccc3nc2[nH]1 [Example 90, 8-chloro-7-(3-(trifluoromethyl)-1H-pyrazol-1-yl)-1,3-dihydro-2H-imidazo[4,5-b]quinolin-2-one] | 3.4 nM |
| O=c1[nH]c2cc3c(Cl)c(-c4ccccc4)ccc3nc2[nH]1 [Example 65, 8-chloro-7-phenyl-1,3-dihydro-2H-imidazo[4,5-b]quinolin-2-one] | 0.8 nM |
| O=c1[nH]c2cc3c(nc2[nH]1)CCN(c1ccccc1)C3 [Example 20, 7-phenyl-1,3,5,6,7,8-hexahydro-2H-imidazo[4,5-b][1,6]naphthyridin-2-one] | 4.5 nM |
| Cc1ccc(-c2ccc3nc4[nH]c(=O)[nH]c4cc3c2C(F)(F)F)cc1 [Example 79, 7-(p-tolyl)-8-(trifluoromethyl)-1,3-dihydro-2H-imidazo[4,5-b]quinolin-2-one] | 0.4 nM |
| CCC1=CCN(c2ccc3nc4[nH]c(=O)[nH]c4cc3c2Cl)CC1 [Example 82, 8-chloro-7-(4-ethyl-3,6-dihydropyridin-1(2H)-yl)-1,3-dihydro-2H-imidazo[4,5-b]quinolin-2-one] | 509 nM |
| COc1cc(Cl)c(-c2ccc3nc4[nH]c(=O)[nH]c4cc3c2)cn1 [Example 8, 7-(4-chloro-6-methoxypyridin-3-yl)-1,3-dihydro-2H-imidazo[4,5-b]quinolin-2-one] | 2.1 nM |
| O=c1[nH]c2cc3c(nc2[nH]1)CCN(c1cccc(Cl)c1)C3 [Example 59, 7-(3-chlorophenyl)-1,3,5,6,7,8-hexahydro-2H-imidazo[4,5-b][1,6]naphthyridin-2-one] | 2.3 nM |
| O=c1[nH]c2cc3cc(-c4ccc(F)cc4)ccc3nc2[nH]1 [Example 9, 7-(4-fluorophenyl)-1,3-dihydro-2H-imidazo[4,5-b]quinolin-2-one] | 1.7 nM |
| Cc1ccc(-c2ccc3nc4[nH]c(=O)[nH]c4cc3c2Cl)cc1 [Example 1, 8-chloro-7-(p-tolyl)-1,3-dihydro-2H-imidazo[4,5-b]quinolin-2-one] | 0.4 nM |
| COc1c(-c2ccc(F)cc2)ccc2nc3[nH]c(=O)[nH]c3cc12 [Example 78, 8-(methoxy)-7-(4-fluorophenyl)-1,3-dihydro-2H-imidazo[4,5-b]quinolin-2-one] | 0.9 nM |
| Cc1ccc(-c2ccc3nc4[nH]c(=O)[nH]c4nc3c2Cl)cc1 [Example 92, 5-chloro-6-(p-tolyl)-1,3-dihydro-2H-imidazo[4,5-b]quinoxalin-2-one] | 88.2 nM |
| O=c1[nH]c2cc3c(nc2[nH]1)CCN(c1cn(C(F)F)nc1Cl)C3 [Example 51, 7-(3-chloro-1-(difluoromethyl)-1H-pyrazol-4-yl)-1,3,5,6,7,8-hexahydro-2H-imidazo[4,5-b][1,6]naphthyridin-2-one] | 74.9 nM |
| Nc1ccc(-c2ccc3nc4[nH]c(=O)[nH]c4cc3c2)c(Cl)n1 [Example 19, 7-(6-amino-2-chloropyridin-3-yl)-1,3-dihydro-2H-imidazo[4,5-b]quinolin-2-one] | 1.7 nM |
| O=c1[nH]c2cc3c(OC(F)F)c(-c4ccc(F)cc4)ccc3nc2[nH]1 [Example 77, 8-(difluoromethoxy)-7-(4-fluorophenyl)-1,3-dihydro-2H-imidazo[4,5-b]quinolin-2-one] | 4.4 nM |
| O=c1[nH]c2cc3cc(-c4cnn(C(F)(F)F)c4)ccc3nc2[nH]1 [Example 29, 7-(1-(trifluoromethyl)-1H-pyrazol-4-yl)-1,3-dihydro-2H-imidazo[4,5-b]quinolin-2-one] | 6.6 nM |
| O=c1[nH]c2cc3cc(-c4c(Cl)ncn4C(F)F)ccc3nc2[nH]1 [Example 38, 7-(4-chloro-1-(difluoromethyl)-1H-imidazol-5-yl)-1,3-dihydro-2H-imidazo[4,5-b]quinolin-2-one] | 4.7 nM |
| Cc1ccc(-c2ccc3nc4c(cc3c2Cl)C(=O)C(=O)N4)cc1 [Example 95, 5-chloro-6-(p-tolyl)-1H-pyrrolo[2,3-b]quinolin-2,3-dione] | 55.5 nM |
| Cc1ccc(-c2ccc3nc4c(cc3c2Cl)CC(=O)N4)cc1 [Example 2, 5-chloro-6-(p-tolyl)-1,3-dihydropyrrolo[2,3-b]quinolin-2-one] | 37.9 nM |
| Cc1ccc(-c2ccc3nc4[nH]c(=O)[nH]c4cc3c2F)cc1 [Example 68, 8-fluoro-7-(p-tolyl)-1,3-dihydro-2H-imidazo[4,5-b]quinolin-2-one] | 2 nM |
| O=c1[nH]c2cc3c(Cl)c(-c4ccc(F)cc4)ccc3nc2[nH]1 [Example 66, 8-chloro-7-(4-fluorophenyl)-1,3-dihydro-2H-imidazo[4,5-b]quinolin-2-one] | 0.9 nM |
| O=c1[nH]c2cc3c(nc2[nH]1)CCN(c1ccc(OC(F)(F)F)cc1Cl)C3 [Example 54, 7-(2-chloro-4-(trifluoromethoxy)phenyl)-1,3,5,6,7,8-hexahydro-2H-imidazo[4,5-b][1,6]naphthyridin-2-one] | 198 nM |
| O=c1[nH]c2cc3c(Cl)c(-c4ccc(C(F)F)cn4)ccc3nc2[nH]1 [Example 74, 8-chloro-7-(5-(difluoromethyl)pyridin-2-yl)-1,3-dihydro-2H-imidazo[4,5-b]quinolin-2-one] | 0.7 nM |

— patent US20260265251A1 (priority 2023, published 2026)
